Test results taken from US9464255B2, “Maleinized ester derivatives” (Elevance Renewable Sciences, Inc., priority 2013, dated 2016).

Tests used:
[1] = tested on: microbial populations in the inoculum (activated sludge); test: Bacterial plate counts of reaction flask solutions at Day 28; assay type: cell-based; details: study termination
Method: Bacterial plate counts are performed on the prepared activated sludge prior to initiation and each replicate reaction flask solution at Day 28. A dilution series of each sample is prepared in sterile, pH 7.2, phosphate-buffered water at 10^−2, 10^−3, 10^−4, 10^−5, and 10^−6. Duplicate 1-mL aliquots of each dilution are directly analyzed by plate counting methods patterned after methods described in Standard Methods for the Examination of Water and Wastewater. (See, American Public Health Association (APHA), American Water Works Association (AWWA), and Water Environment Federation (WEF). 1998. Standard Methods for the Examination of Water and Wastewater, 20th Edition, Part 9215 B, Pour Plate Method). The bacterial growth medium is Plate Count Agar (Difco Laboratories). The plates of inocula are incubated at 26±2° C. for five to six days before counting the number of colonies on plates with fewer than 300 colonies. The number of colonies at the dilution coming closest to 300 colonies is used to calculate colony forming units (CFU)/mL for each sample.

[2] = Solubility in water (observation in the biodegradation test); assay type: physicochemical
From the text: At study initiation, DOC concentration in the test substance replicates is not detected. […] The increase in DOC concentration from Day 0 to Day 28 is likely due to the insolubility of the test substance in water (that is, more test substance likely went into solution while stirring over time). Consequently, DOC removal cannot be calculated for the test substance.

[3] = tested on: activated sludge (microbial inoculum); test: Aerobic biodegradability in water containing mineral salts and activated sludge (CO2 evolution, DOC); details: toxicity control >25% ThCO2 by day 6
Method: A maleinized ester derivative in the form of hydrogenated 1-pentyl triester of maleinated-9-dodecene methyl ester (hereinafter the “test substance”) is evaluated for aerobic biodegradability in water containing mineral salts and activated sludge. The activated sludge is taken from a wastewater treatment plant and is used as a source of microbial inoculum. The objectives of the study are: 1) to evaluate the biodegradability (mineralization to CO2 production) potential of the test substance in an aerobic, aqueous medium; and 2) to determine the mineralization potential of a reference chemical in order to assess the viability of the test inoculum.
Approximately one liter of activated sludge is used as the microbial inoculum. The sludge is collected from the Columbia Wastewater Plant in Columbia, Miss. This plant treats predominately domestic sewage.
An aqueous mineral salts medium provides essential mineral nutrients and trace elements necessary to sustain the inoculum throughout the test period. The mineral salts medium is prepared by addition of reagent grade salts to reagent water. […]
The CO2-free air is introduced into each flask by positive pressure, and the flow rates (50-100 mL/minute) are measured and adjusted using flow meters. […] Temperature of the chamber is continuously measured using a Rees Scientific temperature monitoring system. […]

[4] = Kinematic viscosity (KV); assay type: physicochemical
Method: The maleinated ester derivatives may be biodegradable and may be used as functional base oils. The functional base oil may have a kinetic viscosity (ASTM D-445) in the range from about 2 to about 1000 cSt at 100° C., or from about 2 to about 500, or from about 2 to about 100, or from about 4 to about 10 cSt. The base oil may have a viscosity up to about 35 cSt at 100° C., or in the range from about 3 to about 35 cSt, or in the range from about 5 to about 35 cSt at 100° C.

[5] = Viscosity index (ASTM D2270); assay type: physicochemical
From the text: The functional base oil may have a viscosity index (ASTM D2270) in the range from about 120 to about 250, or from about 130 to about 170.

## hydrogenated 1-pentyl triester of maleinated-9-dodecene methyl ester [test substance]
[1]
  effect on the population of microbes: no significant effect on the population of microbes
[1]; replicate A
  bacterial plate count: 2.4×10^4 CFU/mL
[1]; replicate B
  bacterial plate count: 3.7×10^4 CFU/mL
[2]
  solubility in water: insoluble in water
[3]
  inhibition of the inoculum (toxicity control): not be inhibitory
[3]; listed as triester
  inhibition of the inoculum (toxicity control): not inhibitory

## O=C([O-])c1ccccc1.[Na+] [reference substance, sodium benzoate, reference compound]
[1]; single system
  bacterial plate count: 1.4×10^4 CFU/mL

## CCCCCOC(=O)CCCCCC/C=C/C(CC)C(CC(=O)OCCCCC)C(=O)OCCCCC (centres unmarked) [Example 1, Tri-pentanol ester of the maleinized methyl 9-dodecenoate]
[4]; 40° C.
  KV (40° C.): 24.73 cSt
[4]; 100° C.
  KV (100° C.): 5.0 cSt
[5]
  viscosity index (VI): 128
[5]; Table 1, ASTM D2270
  Viscosity Index: 128
